Test results published in patent publication US11944626B2, “Small molecule inhibitors of ALDH and uses thereof” (The Regents of the University of Michigan, priority 2016, dated 2024).

Tests used:
ALDH2 = molecular target: T1, ALDH2 (Homo sapiens, UniProt P05091); assay: Inhibition of ALDH isoenzymes (NAD(P)H formation at 340 nm, purified recombinant enzyme); assay type: biochemical; design: key to ALDH2 inhibition at 20 μM (N.I.): N.I.: No inhibition at 20 μM; conditions: compound at 20 μM; for remaining activity at 20 µM: read-out: ALDH2 % Control at 20 μM;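 as to all read-outs here: run at 25 °C, started by adding substrate after 2 min preincubation, with 100-200 nM ALDH2, 200 µM NAD+, 100 µM propionaldehyde, 1% DMSO in BES buffer pH 7.5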
T1 sequence (P05091 18-517): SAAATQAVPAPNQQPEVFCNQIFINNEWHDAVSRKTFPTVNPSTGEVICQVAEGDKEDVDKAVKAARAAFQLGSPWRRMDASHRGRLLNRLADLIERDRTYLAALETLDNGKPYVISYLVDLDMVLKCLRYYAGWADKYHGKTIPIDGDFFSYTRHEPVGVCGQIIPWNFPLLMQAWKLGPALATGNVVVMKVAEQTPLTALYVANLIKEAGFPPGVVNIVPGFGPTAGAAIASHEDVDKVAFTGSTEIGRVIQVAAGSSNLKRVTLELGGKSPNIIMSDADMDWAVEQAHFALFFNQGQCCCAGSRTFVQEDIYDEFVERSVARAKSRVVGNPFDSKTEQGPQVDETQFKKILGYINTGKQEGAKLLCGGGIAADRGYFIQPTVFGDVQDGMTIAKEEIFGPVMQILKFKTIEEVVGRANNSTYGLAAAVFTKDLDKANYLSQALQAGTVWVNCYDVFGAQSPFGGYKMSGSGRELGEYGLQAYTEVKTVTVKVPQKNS

OVSAHO = OVSAHO Cell Viability; assay type: cell-based; conditions: for OVSAHO Cell Viability (30 μM) % CD133 + % ctrl / OVSAHO Cell Viability (50 μM) % CD133 + % ctrl: CD133+ cells; for OVSAHO Cell Viability (30 μM) Total Cell % ctrl / OVSAHO Cell Viability (50 μM) Total Cell % ctrl: total cells
ALDH1A1 = molecular target: T2, ALDH1A1 (Homo sapiens, UniProt P00352); assay: Inhibition of ALDH isoenzymes (NAD(P)H formation at 340 nm, purified recombinant enzyme); assay type: biochemical; conditions: for remaining activity at 20 µM: compound at 20 μM, read-out: ALDH1A1 % Control at 20 μM
T2 sequence (P00352 1-501): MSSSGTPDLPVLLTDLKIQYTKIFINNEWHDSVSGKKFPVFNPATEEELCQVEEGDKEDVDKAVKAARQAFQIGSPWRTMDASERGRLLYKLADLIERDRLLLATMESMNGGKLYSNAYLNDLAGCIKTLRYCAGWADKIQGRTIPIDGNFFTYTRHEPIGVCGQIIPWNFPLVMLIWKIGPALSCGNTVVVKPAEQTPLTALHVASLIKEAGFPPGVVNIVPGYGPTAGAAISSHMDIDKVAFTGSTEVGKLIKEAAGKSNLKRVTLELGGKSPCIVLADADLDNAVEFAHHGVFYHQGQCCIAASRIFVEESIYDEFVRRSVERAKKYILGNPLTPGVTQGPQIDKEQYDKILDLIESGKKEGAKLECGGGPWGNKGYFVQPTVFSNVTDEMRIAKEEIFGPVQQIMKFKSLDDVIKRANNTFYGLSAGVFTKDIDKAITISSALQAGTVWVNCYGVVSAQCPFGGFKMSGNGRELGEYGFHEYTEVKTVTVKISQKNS

ALDH1A2 = molecular target: T3, ALDH1A2 (Homo sapiens, UniProt O94788); assay: as above; assay type: biochemical; conditions: for remaining activity at 20 µM: compound at 20 μM, read-out: ALDH1A2 % Control at 20 μM
T3 sequence (O94788 1-518): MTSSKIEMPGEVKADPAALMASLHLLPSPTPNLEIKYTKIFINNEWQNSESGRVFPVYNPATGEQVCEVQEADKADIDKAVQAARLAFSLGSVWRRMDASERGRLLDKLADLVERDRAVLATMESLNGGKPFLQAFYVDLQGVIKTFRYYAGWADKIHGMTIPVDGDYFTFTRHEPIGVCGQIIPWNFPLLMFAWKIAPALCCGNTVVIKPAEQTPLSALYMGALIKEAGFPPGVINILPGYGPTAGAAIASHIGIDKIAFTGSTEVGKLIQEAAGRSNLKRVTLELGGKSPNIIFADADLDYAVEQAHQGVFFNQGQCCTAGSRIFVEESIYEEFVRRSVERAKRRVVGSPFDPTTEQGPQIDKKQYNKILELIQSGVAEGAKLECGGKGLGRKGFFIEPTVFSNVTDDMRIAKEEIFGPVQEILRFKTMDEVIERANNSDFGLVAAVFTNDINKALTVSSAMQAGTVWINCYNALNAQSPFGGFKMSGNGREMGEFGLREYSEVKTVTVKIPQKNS

[1] = 100-200 nM enzyme, 200 μM NAD+, 100 μM propionaldehyde, pH 7.5, 25° C.

| remaining activity at 20 µM (ALDH2) [%] | Compound | OVSAHO Cell Viability (50 μM) % CD133 + % ctrl (OVSAHO) [% ctrl] | OVSAHO Cell Viability (50 μM) Total Cell % ctrl (OVSAHO) [% ctrl] | further results |
| --- | --- | --- | --- | --- |
| 103 | CN(Cc1nc2c(cnn2C)c(=O)n1-c1ccccc1)c1cccc(F)c1 [Example 62, 6-(((3-fluorophenyl)(methyl)amino)methyl)-1-methyl-5-phenyl-1H-pyrazolo[3,4-d]pyrimidin-4(5H)-one] |  |  | OVSAHO Cell Viability (30 μM) % CD133 + % ctrl (OVSAHO): 96% ctrl; OVSAHO Cell Viability (30 μM) Total Cell % ctrl (OVSAHO): 65% ctrl |
|  | O=c1c2cn[nH]c2nc(SCc2cccc(F)c2)n1-c1ccccc1 [Example 2, 6-((3-fluorobenzyl)thio)-5-phenyl-1H-pyrazolo[3,4-d]pyrimidin-4(5H)-one] | 58 | 39 |  |
|  | Cn1c(SCc2cccc(F)c2)nc2c(cnn2C)c1=O [Example 37, 6-((3-fluorobenzyl)thio)-1,5-dimethyl-1H-pyrazolo[3,4-d]pyrimidin-4(5H)-one] | 88 | 7 |  |
| 100 | CC(Sc1nc2nn(CC3COC3)cc2c(=O)n1-c1ccccc1)c1ccccc1 (stereo not shown) [Example 64, 2-(oxetan-3-ylmethyl)-5-phenyl-6-((1-phenylethyl)thio)-2H-pyrazolo[3,4-d]pyrimidin-4(5H)-one] |  |  |  |
| 91 | CC(Sc1nc2c(cnn2C)c(=O)n1-c1ccccc1)c1cccc(O)c1 (stereo not shown) [Example 78, 6-((1-(3-hydroxyphenyl)ethyl)thio)-1-methyl-5-phenyl-1H-pyrazolo[3,4-d]pyrimidin-4(5H)-one] |  |  | remaining activity at 20 µM (ALDH1A1): 4%; remaining activity at 20 µM (ALDH1A2): 0% |
|  | Cn1ncc2c(=O)n(-c3ccccc3)c(SCc3cccc(F)c3)nc21 [Example 27, 6-((3-fluorobenzyl)thio)-1-methyl-5-phenyl-1H-pyrazolo[3,4-d]pyrimidin-4(5H)-one] |  |  | ALDH2 inhibition at 20 μM (N.I.) (ALDH2): N.I. |
| 96 | CC(Sc1nc2c(cnn2C)c(=O)n1-c1ccccc1)c1cccnc1 (stereo not shown) [Example 80, 1-methyl-5-phenyl-6-((1-(pyridin-3-yl)ethyl)thio)-1H-pyrazolo[3,4-d]pyrimidin-4(5H)-one] |  |  | remaining activity at 20 µM (ALDH1A1): 6%; remaining activity at 20 µM (ALDH1A2): 7% |
|  | Cn1ncc2c(=O)n(-c3ccncc3)c(SCc3cccc(F)c3)nc21 [Example 32, 6-((3-fluorobenzyl)thio)-1-methyl-5-(pyridin-4-yl)-1H-pyrazolo[3,4-d]pyrimidin-4(5H)-one] | 75 | 66 | IC50 (ALDH1A1; [1]): 5.2 µM |
|  | Cn1cc2c(=O)n(-c3ccccc3)c(SCc3cccc(F)c3)nc2n1 [Example 13, 6-((3-fluorobenzyl)thio)-2-methyl-5-phenyl-2H-pyrazolo[3,4-d]pyrimidin-4(5H)-one] | 83 | 69 |  |
| 137 | Cn1ncc2c(=O)n(-c3cccc(Cl)c3)c(SCc3cccc(F)c3)nc21 [Example 42, 5-(3-chlorophenyl)-6-((3-fluorobenzyl)thio)-1-methyl-1H-pyrazolo[3,4-d]pyrimidin-4(5H)-one] |  |  |  |
|  | Cc1ccccc1-n1c(SCc2cccc(F)c2)nc2c(cnn2C2COC2)c1=O [Example 9, 6-((3-fluorobenzyl)thio)-1-(oxetan-3-yl)-5-(o-tolyl)-1H-pyrazolo[3,4-d]pyrimidin-4(5H)-one] | 50 | 22 | remaining activity at 20 µM (ALDH1A2): 31% |
|  | Cn1ncc2c(=O)n(-c3ccccn3)c(SCc3cccc(F)c3)nc21 [Example 34, 6-((3-fluorobenzyl)thio)-1-methyl-5-(pyridin-2-yl)-1H-pyrazolo[3,4-d]pyrimidin-4(5H)-one] | 81 | 77 |  |
| 91 | Cn1ncc2c(=O)n(-c3ccccc3)c(OCc3cccc(F)c3)nc21 [Example 60, 6-((3-fluorobenzyl)oxy)-1-methyl-5-phenyl-1H-pyrazolo[3,4-d]pyrimidin-4(5H)-one] |  |  | OVSAHO Cell Viability (30 μM) % CD133 + % ctrl (OVSAHO): 76% ctrl; OVSAHO Cell Viability (30 μM) Total Cell % ctrl (OVSAHO): 35% ctrl |
|  | Cc1ccccc1-n1c(SCc2cccc(F)c2)nc2c(cnn2CC2COC2)c1=O [Example 11, 6-((3-fluorobenzyl)thio)-1-(oxetan-3-ylmethyl)-5-(o-tolyl)-1H-pyrazolo[3,4-d]pyrimidin-4(5H)-one] | 69 | 30 |  |
| 100 | C[C@@H](Sc1nc2c(cnn2C)c(=O)n1-c1ccccc1)c1ccccc1 [Example 65, (R)-1-methyl-5-phenyl-6-((1-phenylethyl)thio)-1H-pyrazolo[3,4-d]pyrimidin-4(5H)-one] |  |  | OVSAHO Cell Viability (30 μM) % CD133 + % ctrl (OVSAHO): 117% ctrl; OVSAHO Cell Viability (30 μM) Total Cell % ctrl (OVSAHO): 75% ctrl |
| 92 | CC(Oc1nc2c(cnn2C)c(=O)n1-c1ccccc1)c1ccccc1 (stereo not shown) [Example 66, 1-methyl-5-phenyl-6-(1-phenylethoxy)-1H-pyrazolo[3,4-d]pyrimidin-4(5H)-one] |  |  | OVSAHO Cell Viability (30 μM) Total Cell % ctrl (OVSAHO): 76% ctrl |
| 107 | CC(Sc1nc2c(cnn2C)c(=O)n1-c1ccccc1)c1ccccc1 (racemic) [Example 61, 1-methyl-5-phenyl-6-((1-phenylethyl)thio)-1H-pyrazolo[3,4-d]pyrimidin-4(5H)-one] |  |  | OVSAHO Cell Viability (30 μM) % CD133 + % ctrl (OVSAHO): 88% ctrl; OVSAHO Cell Viability (30 μM) Total Cell % ctrl (OVSAHO): 7% ctrl |
| 153 | Cn1ncc2c(=O)n(-c3ccc(Cl)cc3)c(SCc3cccc(F)c3)nc21 [Example 43, 5-(4-chlorophenyl)-6-((3-fluorobenzyl)thio)-1-methyl-1H-pyrazolo[3,4-d]pyrimidin-4(5H)-one] |  |  |  |
| 89 | Cn1ncc2c(=O)n(-c3ccccc3)c(CNc3cccc(F)c3)nc21 [Example 49, 6-(((3-fluorophenyl)amino)methyl)-1-methyl-5-phenyl-1H-pyrazolo[3,4-d]pyrimidin-4(5H)-one] |  |  |  |
|  | Cn1ncc2c(=O)n(Cc3ccccc3)c(SCc3cccc(F)c3)nc21 [Example 36, 5-benzyl-6-((3-fluorobenzyl)thio)-1-methyl-1H-pyrazolo[3,4-d]pyrimidin-4(5H)-one] | 5 | 12 | ALDH2 inhibition at 20 μM (N.I.) (ALDH2): N.I. |
|  | Cn1ncc2c(=O)n(-c3cccnc3)c(SCc3cccc(F)c3)nc21 [Example 31, 6-((3-fluorobenzyl)thio)-1-methyl-5-(pyridin-3-yl)-1H-pyrazolo[3,4-d]pyrimidin-4(5H)-one] | 81 | 79 |  |
| 92 | Cn1ncc2c(=O)n(-c3ccccc3)c(CSc3cccc(F)c3)nc21 [Example 51, 6-(((3-fluorophenyl)thio)methyl)-1-methyl-5-phenyl-1H-pyrazolo[3,4-d]pyrimidin-4(5H)-one] |  |  | remaining activity at 20 µM (ALDH1A1): 25% |
|  | Cc1ccccc1-n1c(SCc2cccc(F)c2)nc2c(cnn2C)c1=O [Example 3, 6-((3-fluorobenzyl)thio)-1-methyl-5-(o-tolyl)-1H-pyrazolo[3,4-d]pyrimidin-4(5H)-one] |  |  | IC50 (ALDH1A2; [1]): > 20 µM |
